In the METLIN SMRT retention time set (Domingo-Almenara et al. 2019):

Experiment: gradient 5% acetonitrile 3 min, to 50% in 2 min, to 85% in 15 min, held 3 min, 100 µL/min
Conditions: column: Zorbax Extend-C18 2.1 x 50 mm; eluents: water / acetonitrile, 0.1% formic acid
Method in brief: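 The system's dead and dwell volumes were 40 μL and 900 μL, with a Zorbax Extend-C18 column (2.1 × 50 mm, 1.8 μm) run at 100 μL/min in water and acetonitrile containing 0.1% formic acid each. Pure standards were analyzed in mixtures of ~100 molecules by HPLC–quadrupole time-of-flight mass spectrometry in positive and negative ionization mode. Retention time was assigned from computationally picked, manually inspected adduct peaks.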

Row | SMILES | RP-LC retention time
1 | COc1cn2c(cc1=O)C(=O)N(CCNC(=O)c1c(F)cccc1Cl)CC2 | 660 s
2 | Cc1cccnc1Nc1nc(-c2ccc(F)cc2)cs1 | 870 s
3 | Cc1nn(C)c(C)c1S(=O)(=O)N1[C@H]2CC[C@@H]1c1cnc(-c3ccc(F)cc3)nc1C2 | 924 s
4 | COc1ccc(C)cc1NC(=O)c1cc(C(C)C)n2nccc2n1 | 1270 s
5 | COc1ccc(NC(=O)C2CCN(c3cncnc3N3CCCCC3)CC2)cc1 | 670 s
6 | CN1CCCCCCN(C(=O)c2cc(CN3CCOCC3)on2)[C@H]2CCC[C@H]2C1=O | 614 s
7 | CCN1CCN(c2nc(F)c3c(c2F)S(=O)(=O)CCN3C2CCCCC2)CC1 | 700 s
8 | CCn1c(=O)sc2cc(S(=O)(=O)N3CCC(C(=O)NCc4ccc(C)o4)CC3)ccc21 | 861 s
9 | COCCNC(=O)c1nnc(-c2ccc(S(=O)(=O)N3CCC(C)CC3)cc2)o1 | 838 s
10 | CCOC(=O)c1ccc(NC(=O)c2ccc3c(c2)N(C)C2CCCCN2C3=O)cc1 (stereo not given) | 896 s
11 | O=C(NCC1CCCCC1)C1CCN(C(=O)c2ncn3c2COC(c2ccccc2)C3)CC1 (stereo not given) | 802 s
12 | Cc1ncc2c(n1)CCCN(CC(=O)NC1CCCCCC1)C2=O | 682 s
13 | O=C(Nc1nnc(Cc2cccs2)o1)c1cc(Cl)sc1Cl | 831 s
14 | CCn1ccc(C(=O)N2CCCC2c2cccc(F)c2)n1 (stereo not given) | 840 s
15 | O=C(NC1CCCC1)N1CCC(Oc2ccc(-c3noc(C4CC4)n3)cc2)C1 (stereo not given) | 904 s
16 | CNC(=O)Nc1ccc2nc3n(c(=O)c2c1)CCCC3 | 559 s
17 | Cc1ccc(C)c(NC(=O)C2CCN(S(=O)(=O)c3cc(C(=O)N4CCCC4)n(C)c3)CC2)c1 | 747 s
18 | O=C(Nc1ccc2c(c1)OCCO2)N1CCCCC1c1nc(CCOCC2CC2)no1 (stereo not given) | 878 s

Row | SMILES | RP-LC retention time
19 | CCCN1C(=O)COc2ccc(-c3noc(C4CC(=O)N(c5cccc(Cl)c5)C4)n3)cc21 (stereo not given) | 1080 s
20 | CC(C)COc1cc(=O)n2c(c1C(=O)NCCCN1CCCCC1)CCCCC2 | 584 s
21 | CCN1C(=O)c2cc(C(=O)Nc3cc(C)cc(C)c3)nn2CC1(C)C(=O)NC1CCCC1 (stereo not given) | 917 s
22 | CCN(CC)CCNC(=O)Cn1nc(C)c2nn(-c3ccc(F)cc3)c(-n3cccc3)c2c1=O | 675 s
23 | CN(NC(=O)CC(=O)NN(C)C(=S)c1ccccc1)C(=S)c1ccccc1 | 862 s
24 | Cc1ccc(OCC(=O)Nc2nnc(C3CC(=O)N(c4ccc(F)cc4)C3)o2)cc1 (stereo not given) | 792 s
25 | O=C(COc1ccccc1[N+](=O)[O-])N(Cc1ccccc1)Cc1ccccc1 | 1000 s
26 | COc1ccccc1C(=O)NCCc1c[nH]c2ccc(F)cc12 | 842 s
27 | Cc1ccc(N2C=C(C(=O)N3CCCC3)S(=O)(=O)c3ccc(F)cc32)cc1 | 799 s
28 | O=C1CCCc2cc(S(=O)(=O)N3CCC(C(=O)NCCC4=CCCCC4)CC3)ccc2N1 | 796 s
29 | CC(C)S(=O)(=O)c1cccc(-c2nnc(N)o2)c1 | 589 s
30 | Cc1nn(C)cc1S(=O)(=O)Nc1ccc(C(F)(F)F)cc1 | 753 s
31 | O=C(NCC1CCCO1)C(=O)Nc1ccc(OC(F)(F)F)cc1 (stereo not given) | 834 s
32 | Cc1ccccc1CNC(=O)C1CCCN1S(=O)(=O)c1cc2c(cc1Cl)NC(=O)CO2 (stereo not given) | 786 s
33 | CCC(C)NC(=O)Cn1c(=O)ccc2cc(S(=O)(=O)N3CCC(C)CC3)ccc21 (stereo not given) | 833 s
34 | Cc1cc2c(=O)n(CC(=O)Nc3ccc(Cl)cc3F)ccc2s1 | 871 s
35 | Cc1sc2ncnc(N3CCCC(C)C3)c2c1C(=O)Nc1cccc(F)c1C (stereo not given) | 1300 s
36 | COc1cc(C(=O)Oc2ccc(/C=C/c3ccccn3)cc2)cc(OC)c1OC | 689 s

Second part, the compound after the results:

Row | RP-LC retention time | SMILES
37 | 951 s | CC(=O)N1c2ccc(S(=O)(=O)N3CCCCCC3)cc2CC1C(=O)NCc1ccc(Cl)cc1 (stereo not given)
38 | 832 s | Cc1ccc(S(=O)(=O)N2CCCC(Cn3c(C4CC4)nc4cccnc43)C2)c(C)c1 (stereo not given)
39 | 553 s | Cc1cc(N2CCCC2)n2nc(CN3CCN(c4ccccn4)CC3)nc2n1
40 | 924 s | Cc1noc(-c2ccc(OC3CN(C(=O)Cc4ccccc4)C3)cc2)n1
41 | 575 s | Cn1cc(CN2CCn3c(nnc3[C@@H]3C[C@@H](O)CN3Cc3cccnc3)C2)c2ccccc21
42 | 885 s | Cc1cc(C2CCCN2C(=O)c2cc(-c3ccccc3F)no2)no1 (stereo not given)
43 | 637 s | Cc1cc(N2CCN(C(=O)COc3ccc(Cl)cc3)CC2)nc2nnc(C)n12
44 | 860 s | Cc1ccc(C)c(N2CCN(C(=O)c3ccc(Cn4cncn4)cc3)CC2)c1
45 | 635 s | CCOc1cccc(-c2noc(Cn3ccnc3)n2)c1
46 | 1160 s | CCCNC(=O)C1CCN(c2ccc(SCC(=O)Nc3c(C)cccc3Cl)nn2)CC1
47 | 598 s | O=C(c1cnn2c(-c3ccc4c(c3)OCO4)ccnc12)N1CCN(c2ccccn2)CC1
48 | 1050 s | O=C(Cn1c(=O)oc2ccccc21)Nc1nc(-c2ccc(Br)cc2)cs1
49 | 776 s | O=C1C(c2cccnc2)N(CCCc2ccccc2)C(=O)CN1c1ccccc1 (stereo not given)
50 | 773 s | CN1C(=O)c2cccnc2Sc2cc(C(=O)NC3CCCCC3)ccc21
51 | 670 s | CCCNC(=O)C1CCN(c2ccc(SCC(=O)Nc3cc(F)ccc3F)nn2)CC1
52 | 606 s | Cc1ccccc1-c1noc(C2CCCN2C(=O)Nc2ccccc2Cl)n1 (stereo not given)
53 | 561 s | COCCn1c(C2CCN(C(=O)c3cc(Cl)ccc3OC)C2)nc2ccncc21 (stereo not given)
54 | 755 s | Cn1cc(CCNS(=O)(=O)c2ccc(F)cc2Cl)c2cccnc21
55 | 862 s | Cn1cnc(-c2cc3nccc(Oc4ccc(NC(=S)NC(=O)Cc5ccccc5)cc4F)c3s2)c1
56 | 606 s | COC(=O)C(NC(=O)N1CCCn2nc(-c3ccncc3)cc2C1)c1ccccc1 (stereo not given)
57 | 1010 s | CCn1c(=O)c(N2CCC(NC(=O)Nc3ccccc3Cl)CC2)nc2ccccc21
58 | 957 s | CCC(C(=O)NCCc1c[nH]c2ccc(C)cc12)n1c2ccccc2c2cnn(C)c(=O)c21 (stereo not given)
59 | 1280 s | CCOC(=O)c1cccc(NC(=O)C2CCCN(c3nc4ccccc4nc3C(F)(F)F)C2)c1 (stereo not given)
60 | 580 s | CC(=O)NCC(=O)N1CCCn2cc(-c3ccccc3F)nc21
61 | 724 s | O=C1NC2(CCN(C(=O)NCc3ccccc3)CC2)Nc2c(Cl)cccc21
62 | 827 s | Cc1ccc(S(=O)(=O)N2CCCC(Cn3cnc4cccnc43)C2)cc1C (stereo not given)
63 | 746 s | O=C(NCc1ccc(Br)cc1)C1CCN(c2cnc3nccnc3c2)CC1
64 | 608 s | Cc1ccc(F)cc1S(=O)(=O)N1CCn2c(nnc2C2CCN(C(C)C)C2)C1 (stereo not given)
65 | 925 s | O=C(Nc1ccc(N2CCOCC2)cc1)C1CCCN(c2ncc(-c3ccccc3)cn2)C1 (stereo not given)
